For this data set, the system named is rodent carcinogenicity bioassays, tumor incidence. Put plainly: CCRIS carcinogenicity studies. The settings on record: Dose: 0. In short, it runs like this: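 Archive of carcinogenicity, mutagenicity, tumor promotion and tumor inhibition results drawn from journals, NCI reports and other sources, expert-reviewed; covers 1985-2011 and is no longer updated.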

Active and inactive are the calls of the source. The rule behind the calls is not given here.

As for `CC(C)C/C=N/N(C)C=O`, the carcinogen call is “active; positive” (Species: MOUSE, Strain/Sex: SWISS/FEMALE, Route: GAVAGE, 50 UG/G BW DISSOLVED IN PROPYLENE GLYCOL 1/WK FOR 2 WK (STUDY DURATION: LIFETIME), Tumor Site: Type of Lesion: THYROID: TUMOR, LUNG: TUMOR); “active; positive” (Species: MOUSE, Strain/Sex: SWISS/FEMALE, Route: GAVAGE, 50 UG/G BW DISSOLVED IN PROPYLENE GLYCOL 1/WK FOR 53 WK (STUDY DURATION: LIFETIME), Tumor Site: Type of Lesion: LUNG: TUMOR, LIVER: TUMOR, GALLBLADDER: TUMOR, Tumor Site: Type of Lesion: LUNG: TUMOR, LIVER: TUMOR, GALLBLADDER: TUMOR); “active; positive” (Species: MOUSE, Strain/Sex: SWISS/MALE, Route: GAVAGE, 50 UG/G BW DISSOLVED IN PROPYLENE GLYCOL 1/WK FOR 2 WK (STUDY DURATION: LIFETIME), Tumor Site: Type of Lesion: LUNG: TUMOR, THYROID: TUMOR); “active; positive” (Species: MOUSE, Strain/Sex: SWISS/MALE, Route: GAVAGE, 50 UG/G BW DISSOLVED IN PROPYLENE GLYCOL 1/WK FOR 53 WK (STUDY DURATION: LIFETIME), Tumor Site: Type of Lesion: LUNG: TUMOR, LIVER: TUMOR, GALLBLADDER: TUMOR, PREPUTIAL GLAND: TUMOR, Tumor Site: Type of Lesion: LUNG: TUMOR, LIVER: TUMOR, GALLBLADDER: TUMOR, PREPUTIAL GLAND: TUMOR).
Take `CCN(N=O)C(C)=O`: the carcinogen call by setting is: (Species: MOUSE, Strain/Sex: BALB/C/MALE, Route: ORAL, 1000, 2000 PPM IN DRINKING WATER FOR 2 WK (STUDY DURATION: 52 WK), 1000, 2000 PPM IN DRINKING WATER FOR 2 WK (STUDY DURATION: 52 WK), Tumor Site: Type of Lesion: LUNG: TUMOR) “active; positive”; (Species: RAT, Strain/Sex: WISTAR/MALE, Route: ORAL, 1000, 2000 PPM IN DRINKING WATER FOR 2 WK (STUDY DURATION: 52 WK), 1000, 2000 PPM IN DRINKING WATER FOR 2 WK (STUDY DURATION: 52 WK)) “inactive; negative”.
With `O=[N+]([O-])c1cc(N(CCO)CCO)ccc1NCCO`, the carcinogen call is, setting by setting: (Species: MOUSE, Strain/Sex: B6C3F1/FEMALE, Route: ORAL, 10000, 20000 PPM IN DIET FOR 104 WK, 10000, 20000 PPM IN DIET FOR 104 WK) “inactive; negative”; (Species: MOUSE, Strain/Sex: B6C3F1/MALE, Route: ORAL, 5000, 10000 PPM IN DIET FOR 104 WK, 5000, 10000 PPM IN DIET FOR 104 WK) “inactive; negative”; (Species: RAT, Strain/Sex: F344/FEMALE, Route: ORAL, 10000, 20000 PPM IN DIET FOR 103 WK, 10000, 20000 PPM IN DIET FOR 103 WK) “inactive; negative”; (Species: RAT, Strain/Sex: F344/MALE, Route: ORAL, 5000, 10000 PPM IN DIET FOR 103 WK, 5000, 10000 PPM IN DIET FOR 103 WK) “inactive; negative”.
Consider `CC(C)OC(=O)Nc1cccc(Cl)c1`, for which the carcinogen call (Species: Mouse, Strain/Sex: CD-1/Female (50/group), Route: Oral, 100, 500, 1,000 mg/kg/day in diet for 18 mo, 100, 500, 1,000 mg/kg/day in diet for 18 mo) was “inactive; negative (study details not given in source; purity 96.2%)”; the carcinogen call (Species: Mouse, Strain/Sex: CD-1/Male (50/group), Route: Oral, 100, 500, 1,000 mg/kg/day in diet for 18 mo, 100, 500, 1,000 mg/kg/day in diet for 18 mo) was “inactive; negative (study details not given in source; purity 96.2%)”; the carcinogen call (Species: Rat, Strain/Sex: Sprague-Dawley/Female (50/group), Route: Oral, 30, 100, 500, 1,000 mg/kg/day in diet for 24 mo, 30, 100, 500, 1,000 mg/kg/day in diet for 24 mo) is “inactive; negative (study details not given in source; purity 96.2%)”; the carcinogen call (Species: Rat, Strain/Sex: Sprague-Dawley/Male (50/group), Route: Oral, 30, 100, 500, 1,000 mg/kg/day in diet for 24 mo, 30, 100, 500, 1,000 mg/kg/day in diet for 24 mo, Tumor Site: Type of Lesion: Testis: Interstitial cell tumors (1, 4, 2, 4, 9; Significant at highest dose)) was “active; positive (study details not given in source; purity 96.2%)”.
In the case of `CC(=O)O`, the carcinogen call reads like this: (Species: MOUSE, Strain/Sex: SWISS/FEMALE, Route: ORAL, 5 PPM IN DRINKING WATER FOR DURATION OF STUDY (STUDY DURATION: LIFE SPAN)) “inactive; negative”; (Species: MOUSE, Strain/Sex: SWISS/MALE, Route: ORAL, 5 PPM IN DRINKING WATER FOR DURATION OF STUDY (STUDY DURATION: LIFE SPAN)) “inactive; negative”.
For the molecule `OCCNCCO`, the carcinogen call by setting is: (Species: MOUSE, Strain/Sex: B6C3F1/FEMALE, Route: DERMAL, 40, 80, 160 MG/KG BW IN ETHANOL 5 D/WK FOR 103 WK (STUDY DURATION: 103 WK), 40, 80, 160 MG/KG BW IN ETHANOL 5 D/WK FOR 103 WK (STUDY DURATION: 103 WK), Tumor Site: Type of Lesion: LIVER: HEPATOCELLULAR ADENOMA, HEPATOCELLULAR CARCINOMA, OR HEPATOBLASTOMA) “active; positive”; (Species: MOUSE, Strain/Sex: B6C3F1/MALE, Route: DERMAL, 40, 80, 160 MG/KG BW IN ETHANOL 5 D/WK FOR 103 WK (STUDY DURATION: 103 WK), 40, 80, 160 MG/KG BW IN ETHANOL 5 D/WK FOR 103 WK (STUDY DURATION: 103 WK), Tumor Site: Type of Lesion: LIVER: HEPATOCELLULAR ADENOMA, HEPATOCELLULAR CARCINOMA, OR HEPATOBLASTOMA) “active; positive”; (Species: RAT, Strain/Sex: F344/N/FEMALE, Route: DERMAL, 8, 16, 32 MG/KG BW IN ETHANOL 5 D/WK FOR 103 WK (STUDY DURATION: 103 WK), 8, 16, 32 MG/KG BW IN ETHANOL 5 D/WK FOR 103 WK (STUDY DURATION: 103 WK)) “inactive; negative”; (Species: RAT, Strain/Sex: F344/N/MALE, Route: DERMAL, 16, 32, 64 MG/KG BW IN ETHANOL 5 D/WK FOR 103 WK (STUDY DURATION: 103 WK), 16, 32, 64 MG/KG BW IN ETHANOL 5 D/WK FOR 103 WK (STUDY DURATION: 103 WK)) “inactive; negative”.
For the molecule `NS(=O)(=O)c1cc(C(=O)O)c(NCc2ccco2)cc1Cl`, the carcinogen call (Species: MOUSE, Strain/Sex: B6C3F1/FEMALE, Route: ORAL, 700, 1400 PPM IN FEED FOR 104 WK (STUDY DURATION: 107 WK), 700, 1400 PPM IN FEED FOR 104 WK (STUDY DURATION: 107 WK), Tumor Site: Type of Lesion: MAMMARY GLAND: MIXED TUMOR, MALIGNANT, MAMMARY GLAND: MIXED TUMOR, MALIGNANT OR ACINAR CELL CARCINOMA) was “active; positive”; the carcinogen call (Species: MOUSE, Strain/Sex: B6C3F1/MALE, Route: ORAL, 700, 1400 PPM IN FEED FOR 104 WK (STUDY DURATION: 107 WK), 700, 1400 PPM IN FEED FOR 104 WK (STUDY DURATION: 107 WK)) was “inactive; negative”; the carcinogen call (Species: RAT, Strain/Sex: F344/FEMALE, Route: ORAL, 350, 700 PPM IN FEED FOR 103 WK (STUDY DURATION: 106 WK), 350, 700 PPM IN FEED FOR 103 WK (STUDY DURATION: 106 WK)) was “inactive; negative”; the carcinogen call (Species: RAT, Strain/Sex: F344/MALE, Route: ORAL, 350, 700 PPM IN FEED FOR 103 WK (STUDY DURATION: 106 WK), 350, 700 PPM IN FEED FOR 103 WK (STUDY DURATION: 106 WK), Tumor Site: Type of Lesion: KIDNEY: RENAL TUBULE CELL ADENOMA OR ADENOCARCINOMA, BRAIN: MENINGIOMA) is listed as “equivocal”.
Take `CCC1C(c2ccc(O)cc2)=C(C)c2cc(O)ccc21` (stereo not given): the carcinogen call (Species: HAMSTER, Strain/Sex: SYRIAN/MALE, Route: SUBCUTANEOUS IMPLANT, 20 MG IN PELLETS IMPLANTED EVERY 2.5 MO FOR 9 MO (STUDY DURATION: 9 MO), Tumor Site: Type of Lesion: KIDNEY: TUMOR) was “active; positive”.
